Values after ≈ are worked out from the molar mass of the structure shown.
Key:
[1] = in vivo; conditions: mouse, iv
[2] = mouse, in vivo
[3] = tested on: aminoglycoside 6'-acetyltransferases; experiment: Inactivation by aminoglycoside 6'-acetyltransferases; format: biochemical
[4] = tested on: bacterial strains; experiment: Antibacterial activity in general (summary of Table 1); format: cell-based
Experimental: (§1) The minimum inhibitory concentrations (mcg/ml) of kanamycin C, 3'-deoxykanamycin C and 3',4'-dideoxykanamycin C against various microorganisms were determened according to serial dilution method using nutrient agar medium at 37° C., the estimation being effected after 18 hours incubation.

[5] = tested on: Pseudomonas aeruginosa A3; experiment: Minimum inhibitory concentration, serial dilution method; format: cell-based; conditions: nutrient agar, 37° C., 18 hours, P. aeruginosa A3
Experimental: as §1

[6] = tested on: Pseudomonas aeruginosa H 11; experiment: as above; format: cell-based; conditions: H11, nutrient agar, 37° C., 18 hours, P. aeruginosa H 11, read-out: Minimum Inhibitory Concentration
Experimental: as §1

[7] = tested on: Escherichia coli LA 290 R55; experiment: as above; format: cell-based; conditions: LA290R55, 18 h, read-out: Minimum Inhibitory Concentration
Experimental: as §1

[8] = tested on: Pseudomonas aeruginosa TI-13; experiment: as above; format: cell-based; conditions: TI13, nutrient agar, 37° C., 18 hours, P. aeruginosa TI-13, read-out: Minimum Inhibitory Concentration
Experimental: as §1

[9] = tested on: Escherichia coli K-12 ML 1410; experiment: as above; format: cell-based; conditions: K12ML1410, nutrient agar, 37° C., 18 hours, E. coli K-12 ML 1410
Experimental: as §1

[10] = tested on: Escherichia coli K-12 ML 1410 R81; experiment: as above; format: cell-based; conditions: 18 h, read-out: Minimum Inhibitory Concentration
Experimental: as §1

[11] = tested on: Klebsiella pneumoniae PCI 602; experiment: as above; format: cell-based; conditions: PCI602, 18 h, read-out: Minimum Inhibitory Concentration
Experimental: as §1

[12] = tested on: Escherichia coli NIHJ; experiment: as above; format: cell-based; conditions: 18 h, read-out: Minimum Inhibitory Concentration
Experimental: as §1

[13] = tested on: Escherichia coli W 677; experiment: as above; format: cell-based; conditions: W677, 18 h, read-out: Minimum Inhibitory Concentration
Experimental: as §1

[14] = tested on: 99; experiment: as above; format: cell-based; conditions: 18 h, read-out: Minimum Inhibitory Concentration
Experimental: as §1

[15] = tested on: Pseudomonas aeruginosa No. 12; experiment: as above; format: cell-based; conditions: NO.12, 18 h, read-out: Minimum Inhibitory Concentration
Experimental: as §1

[16] = tested on: Escherichia coli JR 66/W677; experiment: as above; format: cell-based; conditions: JR66/W677, 18 h, read-out: Minimum Inhibitory Concentration
Experimental: as §1

[17] = tested on: Escherichia coli K-12 R5; experiment: as above; format: cell-based; conditions: K12R5, 18 h, read-out: Minimum Inhibitory Concentration
Experimental: as §1

[18] = tested on: Escherichia coli LA 290 R56; experiment: as above; format: cell-based; conditions: LA290R56, 18 h, read-out: Minimum Inhibitory Concentration
Experimental: as §1

[19] = tested on: Escherichia coli K-12 ML 1630; experiment: as above; format: cell-based; conditions: K12ML1630, nutrient agar, 37° C., 18 hours, E. coli K-12 ML 1630
Experimental: as §1

[20] = tested on: Staphylococcus aureus FDA 209P; experiment: as above; format: cell-based; conditions: FDA209P, 18 h, read-out: Minimum Inhibitory Concentration
Experimental: as §1

[21] = tested on: Escherichia coli LA 290 R64; experiment: as above; format: cell-based; conditions: LA290R64, 18 h, read-out: Minimum Inhibitory Concentration
Experimental: as §1

[22] = tested on: Escherichia coli K-12; experiment: as above; format: cell-based; conditions: K12, 18 h, read-out: Minimum Inhibitory Concentration
Experimental: as §1

[23] = tested on: Escherichia coli K-12 ML 1629; experiment: as above; format: cell-based; conditions: K12ML1629, 18 h, read-out: Minimum Inhibitory Concentration
Experimental: as §1

[24] = tested on: Mycobacterium smegmatis ATCC 607; experiment: as above; format: cell-based; conditions: Mycolicibacterium smegmatis, ATCC607, 18 h, read-out: Minimum Inhibitory Concentration
Experimental: as §1

[25] = tested on: Pseudomonas aeruginosa GN 315; experiment: as above; format: cell-based; conditions: GN315, nutrient agar, 37° C., 18 hours, P. aeruginosa GN 315, read-out: Minimum Inhibitory Concentration
Experimental: as §1

[26] = tested on: Klebsiella pneumoniae 22 No. 3038; experiment: as above; format: cell-based; conditions: 22NO.3038, 18 h, read-out: Minimum Inhibitory Concentration
Experimental: as §1

[27] = tested on: aminoglycoside 3'-phosphotransferases; experiment: Inactivation by aminoglycoside 3'-phosphotransferases; format: biochemical
[28] = tested on: resistant strains which produce 6'-acetyltransferases, for example Pseudomonas aeruginosa GN315; experiment: Activity against resistant strains producing 6'-acetyltransferases; format: cell-based; conditions: compared with kanamycin B derivatives

NC1CC(O)C(CO)OC1OC1C(N)CC(N)C(OC2OC(CO)C(O)C(N)C2O)C1O (centres unmarked) [3'-Deoxykanamycin C, 3'-deoxykanamycin C]
LD50 [1]: > 300 mg/kg | acute toxicity compared with deoxy derivatives of kanamycin B [2]: remarkably lower toxicity | inactivation by 6'-acetyltransferases [3]: not inactivated | growth inhibition of bacterial strains [4]: inhibits the growth of many kinds of bacterial strains | antibacterial activity compared with 3'-deoxykanamycin B and 3',4'-dideoxykanamycin B ([4]; against some bacteria strains): inferior | MIC [5]: 12.5 µg/mL (≈ 26.7 µM) | MIC [6]: 50 µg/mL (≈ 107 µM) | MIC [7]: > 100 µg/mL | MIC [8]: 50 µg/mL (≈ 107 µM) | MIC [9]: 12.5 µg/mL (≈ 26.7 µM) | MIC [10]: 50 µg/mL (≈ 107 µM) | MIC [11]: 6.25 µg/mL (≈ 13.3 µM) | MIC [12]: 12.5 µg/mL (≈ 26.7 µM) | MIC [13]: 6.25 µg/mL (≈ 13.3 µM) | MIC [14]: 100 µg/mL (≈ 213 µM) | MIC [15]: 100 µg/mL (≈ 213 µM) | MIC [16]: > 100 µg/mL | MIC [17]: 12.5 µg/mL (≈ 26.7 µM) | MIC [18]: 100 µg/mL (≈ 213 µM) | MIC [19]: 12.5 µg/mL (≈ 26.7 µM) | MIC [20]: 3.13 µg/mL (≈ 6.68 µM) | MIC [21]: 50 µg/mL (≈ 107 µM) | MIC [22]: 12.5 µg/mL (≈ 26.7 µM) | MIC [23]: 12.5 µg/mL (≈ 26.7 µM) | MIC [24]: 25 µg/mL (≈ 53.4 µM) | MIC [25]: 50 µg/mL (≈ 107 µM) | MIC [26]: > 100 µg/mL | inactivation by 3'-phosphotransferases [27]: not inactivated | activity against resistant strains which produce 6'-acetyltransferases [28]: more active than kanamycin B derivatives

Reference: US4120955A, “Method for production of kanamycin C and its derivatives” (Zaidan Hojin Biseibutsu Kagaku Kenkyu Kai, priority 1976, dated 1978)
